Results published in PubChem BioAssay AID1963840 (Molecular Pharmacology Branch, DTP, NCI, 2024).

Test system: 695427-040-R-J1-PDC complex spheroid viability
Assay: Anticancer human tumor 695427-040-R-J1-PDC patient-derived colon adenocarcinoma cell line growth inhibition [POLQ]
Conditions: for IC50: curve of first compound; for viability, T/C: stronger effect = lower value
Procedure, shortened: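 Complex spheroid viability model combining PDC tumour cells with endothelial (HUVEC) and MSC stromal cells. Novobiocin, ART-558 or RP6685 were tested singly and in combination with standard and investigational anticancer drugs. Each was titrated in half-log steps from near clinical Cmax, or from 10 microM where Cmax was unknown.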

[1] = second compound 0.0316 µM, first compound 0.0316 µM
[2] = second compound 0.0316 µM, first compound 0.1 µM
[3] = second compound 0.0316 µM, first compound 0.316 µM
[4] = second compound 0.0316 µM, first compound 1 µM
[5] = second compound 0.0316 µM, first compound 3.16 µM
[6] = second compound 0.0316 µM, first compound 10 µM
[7] = second compound 0.1 µM, first compound 0.0316 µM
[8] = second compound 0.1 µM, first compound 0.1 µM
[9] = second compound 0.1 µM, first compound 0.316 µM
[10] = second compound 0.1 µM, first compound 1 µM
[11] = second compound 0.1 µM, first compound 3.16 µM
[12] = second compound 0.1 µM, first compound 10 µM
[13] = second compound 0.316 µM, first compound 0.0316 µM
[14] = second compound 0.316 µM, first compound 0.1 µM
[15] = second compound 0.316 µM, first compound 0.316 µM
[16] = second compound 0.316 µM, first compound 1 µM
[17] = second compound 0.316 µM, first compound 3.16 µM
[18] = second compound 0.316 µM, first compound 10 µM
[19] = second compound 1 µM, first compound 0.0316 µM
[20] = second compound 1 µM, first compound 0.1 µM
[21] = second compound 1 µM, first compound 0.316 µM
[22] = second compound 1 µM, first compound 1 µM
[23] = second compound 1 µM, first compound 3.16 µM
[24] = second compound 1 µM, first compound 10 µM
[25] = second compound 3.16 µM, first compound 0.0316 µM
[26] = second compound 3.16 µM, first compound 0.1 µM
[27] = second compound 3.16 µM, first compound 0.316 µM
[28] = second compound 3.16 µM, first compound 1 µM
[29] = second compound 3.16 µM, first compound 3.16 µM
[30] = second compound 3.16 µM, first compound 10 µM
[31] = second compound 10 µM, first compound 0.0316 µM
[32] = second compound 10 µM, first compound 0.1 µM
[33] = second compound 10 µM, first compound 0.316 µM
[34] = second compound 10 µM, first compound 1 µM
[35] = second compound 10 µM, first compound 3.16 µM
[36] = second compound 10 µM, first compound 10 µM
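Further: spheroids exposed to compounds for seven days.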
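Wherever viability, T/C is given: 100% = DMSO vehicle control viability.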

CC(=O)O[C@H]1C(=O)[C@@]2(C)[C@H]([C@H](OC(=O)c3ccccc3)[C@]3(O)C[C@H](OC(=O)[C@H](O)[C@@H](NC(=O)c4ccccc4)c4ccccc4)C(C)=C1C3(C)C)[C@]1(OC(C)=O)CO[C@@H]1C[C@@H]2O + COC1C(OC(N)=O)C(O)C(Oc2ccc3c(O)c(NC(=O)c4ccc(O)c(CC=C(C)C)c4)c(=O)oc3c2C)OC1(C)C
IC50 (second compound 0.0316 µM): > 3 µM
IC50 (second compound 0.1 µM): > 3 µM
IC50 (second compound 0.316 µM): > 3 µM
IC50 (second compound 1 µM): > 3 µM
IC50 (second compound 3.16 µM): > 3 µM
IC50 (second compound 10 µM): > 3 µM
viability, T/C (second compound 0.0316 µM, first compound 0.00949 µM): 96.4%
viability, T/C (second compound 0.0316 µM, first compound 0.03 µM): 85.9%
viability, T/C (second compound 0.0316 µM, first compound 0.0949 µM): 84.7%
viability, T/C (second compound 0.0316 µM, first compound 0.3 µM): 89.5%
viability, T/C (second compound 0.0316 µM, first compound 0.949 µM): 84.6%
viability, T/C (second compound 0.0316 µM, first compound 3 µM): 72.2%
viability, T/C (second compound 0.1 µM, first compound 0.00949 µM): 96.4%
viability, T/C (second compound 0.1 µM, first compound 0.03 µM): 98.1%
viability, T/C (second compound 0.1 µM, first compound 0.0949 µM): 94.1%
viability, T/C (second compound 0.1 µM, first compound 0.3 µM): 85.9%
viability, T/C (second compound 0.1 µM, first compound 0.949 µM): 89.8%
viability, T/C (second compound 0.1 µM, first compound 3 µM): 72.4%
viability, T/C (second compound 0.316 µM, first compound 0.00949 µM): 103%
viability, T/C (second compound 0.316 µM, first compound 0.03 µM): 91.4%
viability, T/C (second compound 0.316 µM, first compound 0.0949 µM): 91%
viability, T/C (second compound 0.316 µM, first compound 0.3 µM): 92.4%
viability, T/C (second compound 0.316 µM, first compound 0.949 µM): 88.1%
viability, T/C (second compound 0.316 µM, first compound 3 µM): 77.9%
viability, T/C (second compound 1 µM, first compound 0.00949 µM): 99.2%
viability, T/C (second compound 1 µM, first compound 0.03 µM): 93.3%
viability, T/C (second compound 1 µM, first compound 0.0949 µM): 86.1%
viability, T/C (second compound 1 µM, first compound 0.3 µM): 90.5%
viability, T/C (second compound 1 µM, first compound 0.949 µM): 88.5%
viability, T/C (second compound 1 µM, first compound 3 µM): 78.6%
viability, T/C (second compound 3.16 µM, first compound 0.00949 µM): 92.5%
viability, T/C (second compound 3.16 µM, first compound 0.03 µM): 97.9%
viability, T/C (second compound 3.16 µM, first compound 0.0949 µM): 86.7%
viability, T/C (second compound 3.16 µM, first compound 0.3 µM): 87.3%
viability, T/C (second compound 3.16 µM, first compound 0.949 µM): 87.6%
viability, T/C (second compound 3.16 µM, first compound 3 µM): 76.3%
viability, T/C (second compound 10 µM, first compound 0.00949 µM): 93.7%
viability, T/C (second compound 10 µM, first compound 0.03 µM): 97.2%
viability, T/C (second compound 10 µM, first compound 0.0949 µM): 91.7%
viability, T/C (second compound 10 µM, first compound 0.3 µM): 88.5%
viability, T/C (second compound 10 µM, first compound 0.949 µM): 87.6%
viability, T/C (second compound 10 µM, first compound 3 µM): 77%

COc1cc(C2c3cc4c(cc3C(OC3OC5COC(C)OC5C(O)C3O)C3COC(=O)C23)OCO4)cc(OC)c1O (stereo unspecified) + COC1C(OC(N)=O)C(O)C(Oc2ccc3c(O)c(NC(=O)c4ccc(O)c(CC=C(C)C)c4)c(=O)oc3c2C)OC1(C)C
IC50 (second compound 0.0316 µM): > 10 µM
IC50 (second compound 0.1 µM): > 10 µM
IC50 (second compound 0.316 µM): > 10 µM
IC50 (second compound 1 µM): > 10 µM
IC50 (second compound 3.16 µM): > 10 µM
IC50 (second compound 10 µM): > 10 µM
viability, T/C [1]: 96.7%
viability, T/C [2]: 92.3%
viability, T/C [3]: 98.8%
viability, T/C [4]: 96.2%
viability, T/C [5]: 98.4%
viability, T/C [6]: 82.4%
viability, T/C [7]: 101%
viability, T/C [8]: 93.4%
viability, T/C [9]: 101%
viability, T/C [10]: 93.8%
viability, T/C [11]: 99.5%
viability, T/C [12]: 83.6%
viability, T/C [13]: 104%
viability, T/C [14]: 92.3%
viability, T/C [15]: 94.7%
viability, T/C [16]: 97%
viability, T/C [17]: 95.3%
viability, T/C [18]: 80.6%
viability, T/C [19]: 107%
viability, T/C [20]: 98.5%
viability, T/C [21]: 112%
viability, T/C [22]: 100%
viability, T/C [23]: 96.4%
viability, T/C [24]: 83.7%
viability, T/C [25]: 99.4%
viability, T/C [26]: 98.3%
viability, T/C [27]: 101%
viability, T/C [28]: 101%
viability, T/C [29]: 98.9%
viability, T/C [30]: 82.8%
viability, T/C [31]: 94.5%
viability, T/C [32]: 95.2%
viability, T/C [33]: 95.3%
viability, T/C [34]: 99.9%
viability, T/C [35]: 103%
viability, T/C [36]: 83.2%

COc1cccc2c1C(=O)c1c(O)c3c(c(O)c1C2=O)CC(O)(C(=O)CO)CC3OC1CC(N)C(O)C(C)O1 (stereo unspecified) + COC1C(OC(N)=O)C(O)C(Oc2ccc3c(O)c(NC(=O)c4ccc(O)c(CC=C(C)C)c4)c(=O)oc3c2C)OC1(C)C
IC50 (second compound 0.0316 µM): > 10 µM
IC50 (second compound 0.1 µM): > 10 µM
IC50 (second compound 0.316 µM): > 10 µM
IC50 (second compound 1 µM): > 10 µM
IC50 (second compound 3.16 µM): > 10 µM
IC50 (second compound 10 µM): > 10 µM
viability, T/C [1]: 98.1%
viability, T/C [2]: 96.5%
viability, T/C [3]: 98%
viability, T/C [4]: 74%
viability, T/C [5]: 68.2%
viability, T/C [6]: 54.5%
viability, T/C [7]: 106%
viability, T/C [8]: 95.2%
viability, T/C [9]: 95.1%
viability, T/C [10]: 74.4%
viability, T/C [11]: 64%
viability, T/C [12]: 51.5%
viability, T/C [13]: 102%
viability, T/C [14]: 91.6%
viability, T/C [15]: 84%
viability, T/C [16]: 79%
viability, T/C [17]: 65.9%
viability, T/C [18]: 48.6%
viability, T/C [19]: 98.4%
viability, T/C [20]: 95.1%
viability, T/C [21]: 92.1%
viability, T/C [22]: 81.1%
viability, T/C [23]: 68.3%
viability, T/C [24]: 50.3%
viability, T/C [25]: 99.4%
viability, T/C [26]: 98%
viability, T/C [27]: 88.9%
viability, T/C [28]: 75.7%
viability, T/C [29]: 70.1%
viability, T/C [30]: 54.5%
viability, T/C [31]: 103%
viability, T/C [32]: 90.5%
viability, T/C [33]: 105%
viability, T/C [34]: 87.3%
viability, T/C [35]: 67.5%
viability, T/C [36]: 55.8%
